Experimental data: patent US20240050463A1, “THERAPEUTIC COMPOSITIONS AND METHODS FOR TREATING HEPATITIS B” (ARBUTUS BIOPHARMA CORPORATION, priority 2016, published 2024)

How the values were obtained:
[1] = tested on: hepatitis B virus (HBV); test: Serum HBsAg in mouse model of HBV (pAAV/HBV1.2 hydrodynamic injection), enzyme immunoassay; assay type: in vivo, C3H/HeN mice; settings: HBV siRNA 1 mg/kg IV Days 0, 7, 14, poly(I:C) 20 μg HDI Day 0, mean ± SEM
Excerpt: A mouse model of hepatitis B virus (HBV) was used to assess the anti-HBV effects of an immune stimulant and HBV-targeting siRNAs, both as independent treatments and in combination with each other.
(§1) This plasmid carries a 1.2-fold overlength copy of a HBV genome and expresses HBV surface antigen (HBsAg) amongst other HBV products. Serum HBsAg expression in mice was monitored using an enzyme immunoassay. Animals were sorted (randomized) into groups based on serum HBsAg levels such that a) all animals were confirmed to express HBsAg and b) HBsAg group means were similar to each other prior to initiation of treatments.
Animals were treated with immune stimulant as follows: On Day 0, 20 micrograms of high molecular weight polyinosinic:poly cytidylic acid (poly(I:C)) was administered via HDI. Animals were treated with lipid nanoparticle (LNP)-encapsulated HBV-targeting siRNAs as follows: On each of Days 0, 7 & 14, an amount of test article equivalent to 1 mg/kg siRNA was administered intravenously. A negative control group was included as the HBsAg expression level is not completely stable in this mouse model of HBV; the absolute concentration of serum HBsAg generally declines over time in individual animals.
The effect of the treatments was determined by collecting a small amount of blood on Days 0 (pre-treatment), 3, 7, 14 & 21 and analyzing it for serum HBsAg content. Samples were diluted as appropriate to generate values within the assay range of quantitation where possible. Individual values falling below the lower limit of quantitation (LLOQ) were set as one-half the LLOQ.

[2] = tested on: D type HBV in primary human hepatocytes (PHH); test: HBV DNA in culture supernatants of HBV-infected primary human hepatocytes (qPCR), MacSynergy; assay type: cell-based; settings: for AVERAGE % INHIBITION, HBV DNA: COMPOUND 3 0.00 nM; for AVERAGE % INHIBITION: HBV DNA, COMPOUND 22 0.00 nM
Experimental: (§2) The mouse liver perfusion was applied to isolate PHHs. The isolated hepatocytes were further purified by Percoll. The cells were resuspended with culture media and seeded into the 96-well plates (6×10^4 cell/well) or 48-well plates (1.2×10^5 cell/well). The PHHs were infected with a D type HBV one day post seeding (day 1).
(§3) On day 2, the test compounds were diluted and added into the cell culture plates. The culture media containing the compounds were refreshed every other day. The cell culture supernatants were collected on day 8 for the HBV DNA and antigen determinations.
(§4) The compounds were tested at 7 concentrations, 3-fold dilution, in triplicate.
(§5) Two compounds were tested at 5×5 matrix, in triplicate plates.
DNA in the culture supernatants harvested on days 8 were isolated with QIAamp 96 DNA Blood Kit (Qiagen-51161). For each sample, 100 μl of the culture supernatants was used to extract DNA. The DNA was eluted with 100 μl, 150 μl or 180 μl of AE. HBV DNA in the culture supernatants was quantified by qPCR. The combination effect was analyzed by the MacSynergy software. The primers are described below.

[3] = tested on: HBsAg, D type HBV in primary human hepatocytes (PHH); test: microbe, parasite or virus in culture; assay type: cell-based; settings: for AVERAGE % INHIBITION, HBsAg: COMPOUND 3 0.00 nM; for AVERAGE % INHIBITION: HBsAg, COMPOUND 22 0.00 nM
Experimental: as §2, §3, §4, §5
(§6) HBsAg/HBeAg in the culture supernatants harvested on days 8 were measured by the HBsAg/HBeAg ELISA kit (Autobio) according to the manual. The samples were diluted with PBS to get the signal in the range of the standard curve. The inhibition rates were calculated with the formula below. The combination effect was analyzed by the MacSynergy software.
% Inh. HBsAg=[1−HBsAg quantity of sample/HBV quantity of DMSO control]×100.

[4] = tested on: HBeAg, D type HBV in primary human hepatocytes (PHH); test: microbe, parasite or virus in culture; assay type: cell-based
Experimental: as §2, §3, §4, §5, §6
% Inh. HBeAg=[1−HBeAg quantity of sample/HBV quantity of DMSO control]×100.

[5] = tested on: HBV rcDNA in HepDE19 cells; test: Inhibition of rcDNA in HepDE19 cells (bDNA assay), checkerboard, MacSynergy II; assay type: cell-based, HBV (human hepatoma cell line); settings: Hepatitis B virus, HepDE19, read-out: ADDITIVE INHIBITION
Experimental: In vitro combination studies were conducted using the method of Prichard and Shipman (Prichard M N, and Shipman C Jr., Antiviral Research, 1990, 14(4-5), 181-205; and Prichard M N, et. al., MacSynergy II). HepDE19 cell culture system is a HepG2 (human hepatocarcinoma) derived cell line that supports HBV DNA replication and cccDNA formation in a tetracycline (Tet)-regulated manner and produces HBV rcDNA and a detectable reporter molecule dependent on the production and maintenance of cccDNA (Guo et al 2007. J. Virol 81:12472-12484). HepDE19 (50,000 cells/well) were plated in 96 well collagen-coated tissue-culture treated microtiter plates in DMEM/F12 medium supplemented with 10% fetal bovine serum, 1% penicillin-streptomycin and 1 μg/ml tetracycline and incubated in a humidified incubator at 37° C. and 5% CO2 overnight. Next day, the cells were switched to fresh medium without tetracycline and incubated for 4 hrs at 37° C. and 5% CO2. […] The two inhibitors were tested both singly as well as in combinations in a checkerboard fashion such that each concentration of inhibitor A was combined with each concentration of inhibitor B to determine their combination effects on inhibition of rcDNA production. Following a 7 day-incubation of cells with compound combinations, the level of rcDNA present in the inhibitor-treated wells was measured using a Quantigene 2.0 bDNA assay kit (Affymetrix, Santa Clara, CA) with HBV specific custom probe set and manufacturers instructions. […] The RLU data from the single compound treated cells were analyzed using XL-Fit module in Microsoft Excel to determine EC50 values using a 4-parameter curve fitting algorithm. Concurrently, the effect of compounds on cell viability was assessed using replicate plates, plated at a density of 5,000 cells/well and incubated for 4 days, to determine the ATP content as a measure of cell viability using the cell-titer glo reagent (CTG; Promega Corporation, Madison, WI) as per manufacturer's instructions.
In vitro combination studies were conducted using the method of Prichard and Shipman (Prichard M N, Shipman C, Jr., Antiviral Res, 14, 181-205 (1990)). The HepDE19 cell line was developed as described in Guo et al. (Guo et al., J Virol, 81, 12472-12484 (2007)). It is a human hepatoma cell line stably transfected with the HBV genome, and which can express HBV pregenomic RNA and support HBV rcDNA (relaxed circular DNA) synthesis in a tetracycline-regulated manner. HepDE19 cells were plated in 96 well tissue-culture treated microtiter plates in DMEM/F12 medium supplemented with 10% fetal bovine serum+1% penicillin-streptomycin without tetracycline and incubated in a humidified incubator at 37° C. and 5% CO2 overnight. […] The two inhibitors were tested both singly as well as in combinations in a checkerboard fashion such that each concentration of inhibitor A was combined with each concentration of inhibitor B to determine their combination effects on inhibition of rcDNA production. Following a 48 hour-incubation, the level of rcDNA present in the inhibitor-treated wells was measured using a bDNA assay (Affymetrix) with HBV specific custom probe set and manufacturers instructions. […] Concurrently, the effect of inhibitor combinations on cell viability was assessed using replicate plates that were used to determine the ATP content as a measure of cell viability using the Cell-TiterGlo reagent (Promega) as per manufacturer's instructions.
In vitro combination studies were conducted using the method of Prichard and Shipman (1990) (Prichard M N, Shipman C, Jr. 1990. A three-dimensional model to analyze drug-drug interactions. Antiviral Res 14:181-205 AND Prichard M N. 1992. MacSynergy II, University of Michigan).

[6] = tested on: hepatitis B virus (HBV); test: Serum HBsAg in AAV1.2 mouse model of HBV, enzyme immunoassay; assay type: in vivo, C57/Bl6 mice; settings: D0 (pre-treatment); Compound 20 3.0 mg/kg oral twice daily Days 0-28; HBV siRNA 0.3 mg/kg IV Day 0
Experimental: as §1, with “This viral vector contains” for “This plasmid carries”, “of the” for “of a”
Animals were treated with Compound 20 as follows: Starting on Day 0, a 3.0 mg/kg dosage of Compound 20 was administered orally to animals on a twice-daily frequency for a total of 56 doses between Days 0 and 28. Compound 20 was dissolved in a co-solvent formation for administration. Negative control animals were administered either the co-solvent formulation alone, or were not treated with any test article. Animals were treated with lipid nanoparticle (LNP)-encapsulated HBV-targeting siRNAs as follows: On Day 0, an amount of test article equivalent to 0.3 mg/kg siRNA was administered intravenously. The HBsAg expression levels for each treatment were compared against the Day 0 (pre-dose) values for that group.
The effect of these treatments was determined by collecting blood on Days 0 (pre-treatment), 7, 14, and 28 and analyzing it for serum HBsAg content.

[7] = Hepatitis B virus, Hepatocyte, read-out: AVERAGE % INHIBITION (HBV DNA)
[8] = Hepatitis B virus, Hepatocyte, read-out: AVERAGE % INHIBITION (HBsAg)
[9] = Hepatitis B virus, Hepatocyte, read-out: AVERAGE % INHIBITION (HBeAg)

Compound: polyinosinic:poly cytidylic acid [Poly(I:C)]
- Serum HBsAg as percentage of individual pre-treatment baseline ([1]; Day 0 (pre-treatment)): 100 ± 0%
- Serum HBsAg as percentage of individual pre-treatment baseline ([1]; Day 3): 6.1 ± 1.1%
- Serum HBsAg as percentage of individual pre-treatment baseline ([1]; Day 7): 3.5 ± 1.1%
- Serum HBsAg as percentage of individual pre-treatment baseline ([1]; Day 14): 3.9 ± 1.4%
- Serum HBsAg as percentage of individual pre-treatment baseline ([1]; Day 21): 4.7 ± 2.3%

Compound: COCCCOc1cc2c(cc1OC)-c1cc(=O)c(C(=O)O)cn1C(C(C)C)C2 (stereo not drawn) [Compound 25]
- AVERAGE % INHIBITION, HBV DNA ([2]; COMPOUND 25 0.12 nM): −20.98%
- AVERAGE % INHIBITION, HBV DNA ([2]; COMPOUND 25 0.37 nM): −51.8%
- AVERAGE % INHIBITION, HBV DNA ([2]; COMPOUND 25 3.33 nM): 15.24%
- AVERAGE % INHIBITION, HBV DNA ([2]; COMPOUND 25 10.00 nM): 28%
- AVERAGE % INHIBITION, HBV DNA ([2]; COMPOUND 25 […]): 5.69%
- AVERAGE % INHIBITION ([2]; COMPOUND 25 0.12 nM): −42.82%
- AVERAGE % INHIBITION ([2]; COMPOUND 25 0.37 nM): −46.48%
- AVERAGE % INHIBITION ([2]; COMPOUND 25 3.33 nM): 16.41%
- AVERAGE % INHIBITION ([2]; COMPOUND 25 10.00 nM): 37.39%
- AVERAGE % INHIBITION ([2]; COMPOUND 25 […]): −19.21%
- AVERAGE % INHIBITION, HBsAg ([3]; COMPOUND 25 0.37 nM): −5.09%
- AVERAGE % INHIBITION, HBsAg ([3]; COMPOUND 25 […]): −3.18%
- AVERAGE % INHIBITION ([3]; COMPOUND 25 0.37 nM): 12.93%
- AVERAGE % INHIBITION ([3]; COMPOUND 25 […]): 26.4%
- AVERAGE % INHIBITION, HBeAg ([4]; COMPOUND 25 […], COMPOUND 3 0.00 nM): 4.51%
- AVERAGE % INHIBITION ([4]; HBeAg, COMPOUND 25 […], COMPOUND 22 0.00 nM): 14.98%

Compound: CC(C)OC(=O)[C@H](C)N[P@](=O)(CO[C@H](C)Cn1cnc2c(N)ncnc21)Oc1ccccc1 [TAF, tenofovir alafenamide]
- inhibition at 0.0007813 µM [5]: -4.76%
- inhibition at 0.0015625 µM [5]: 3.49%
- inhibition at 0.00012 µM [2, 7]: -2.6%
- inhibition at 0.00037 µM [2, 7]: -1.92%
- inhibition at 0.00333 µM [2, 7]: 40.2%
- inhibition at 0.01 µM [2, 7]: 50.2%
- AVERAGE % INHIBITION, HBV DNA ([2]; TAF 0.05 nM): −8.77%
- AVERAGE % INHIBITION, HBV DNA ([2]; TAF 0.41 nM): 28.78%
- AVERAGE % INHIBITION, HBV DNA ([2]; TAF 1.23 nM): 63.39%
- AVERAGE % INHIBITION, HBV DNA ([2]; TAF 3.70 nM): 78.31%
- inhibition at 0.000123457 µM [3, 8]: 29.8%
- inhibition at 0.00037037 µM [3, 8]: 10.8%
- inhibition at 0.00111111 µM [3, 8]: 20.8%
- inhibition at 0.00333333 µM [3, 8]: 9.06%
- inhibition at 0.01 µM [3, 8]: 7.97%
- inhibition at 50 pM [4, 9]: 1.17%
- inhibition at 0.00014 µM [4, 9]: -2.78%
- inhibition at 0.00041 µM [4, 9]: 1.76%
- inhibition at 0.00123 µM [4, 9]: 9.91%
- inhibition at 0.0037 µM [4, 9]: 11.9%

Compound: COCCCOc1cc2c(cc1OC)-c1cc(=O)c(C(=O)O)cn1[C@H](C(C)C)C2 [Compound 20]
- Serum HBsAg, percentage of individual animal pre-treatment baseline value at Day 0 (mean ± SEM) [6]: 100 ± 0%
